Reference: patent publication US20150344427A1 (EPIZYME, INC., priority 2012, published 2015)

Experiments:
[1] = biological target: T1, wild-type EZH2 (PRC2 enzyme) (Homo sapiens, UniProt Q15910); experiment: PRC2 enzyme assay on peptide substrate, wild-type EZH2; format: biochemical; settings: wild-type PRC2 enzyme 4 nM, H3K27me0 peptide, 3H-SAM Flashplate; read-out: WT EZH2 IC50
T1 construct: made in house; host or cells: Spodoptera frugiperda (sf9) cells, baculovirus
Description: (§1) General Materials. S-adenosylmethionine (SAM), S-adenosylhomocyteine (SAH), bicine, KCl, Tween20, dimethylsulfoxide (DMSO) and bovine skin gelatin (BSG) were purchased from Sigma-Aldrich at the highest level of purity possible. Dithiothreitol (DTT) was purchased from EMD. ^3H-SAM was purchased from American Radiolabeled Chemicals with a specific activity of 80 Ci/mmol. 384-well streptavidin Flashplates were purchased from PerkinElmer.
(§2) Peptides representative of human histone H3 residues 21-44 containing either an unmodified lysine 27 (H3K27me0) or dimethylated lysine 27 (H3K27me2) were synthesized with a C-terminal G(K-biotin) linker-affinity tag motif and a C-terminal amide cap by 21st Century Biochemicals. […] The sequences are listed below.
(§3) Human PRC2 enzymes were purified as 4-component enzyme complexes co-expressed in Spodoptera frugiperda (sf9) cells using a baculovirus expression system. […] The EED subunit contained an N-terminal FLAG tag that was used to purify the entire 4-component complex from sf9 cell lysates.
(§4) The assays were all performed in a buffer consisting of 20 mM bicine (pH=7.6), 0.5 mM DTT, 0.005% BSG and 0.002% Tween20, prepared on the day of use. Compounds in 100% DMSO (1 μL) were spotted into polypropylene 384-well V-bottom plates (Greiner) using a Platemate 2×3 outfitted with a 384-channel pipet head (Thermo). DMSO (1 μL) was added to columns 11, 12, 23, 24, rows A-H for the maximum signal control, and SAH, a known product and inhibitor of PRC2 (1 μL) was added to columns 11,12, 23, 24, rows I-P for the minimum signal control. A cocktail (40 μL) containing the wild-type PRC2 enzyme and H3K27me0 peptide or any of the Y641 mutant enzymes and H3K27me2 peptide was added by Multidrop Combi (Thermo). The compounds were allowed to incubate with PRC2 for 30 min at 25° C., then a cocktail (10 μL) containing a mixture of non-radioactive and ^3H-SAM was added to initiate the reaction (final volume=51 μL). In all cases, the final concentrations were as follows: wild-type or mutant PRC2 enzyme was 4 nM, SAH in the minimum signal control wells was 1 mM and the DMSO concentration was 1%. The assays were stopped by the addition of non-radioactive SAM (10 μL) to a final concentration of 600 μM, which dilutes the ^3H-SAM to a level where its incorporation into the peptide substrate is no longer detectable. 50 μL of the reaction in the 384-well polypropylene plate was then transferred to a 384-well Flashplate and the biotinylated peptides were allowed to bind to the streptavidin surface for at least 1 h before being washed three times with 0.1% Tween20 in a Biotek ELx405 plate washer. The plates were then read in a PerkinElmer TopCount platereader to measure the quantity of ^3H-labeled peptide bound to the Flashplate surface, measured as disintegrations per minute (dpm) or alternatively, referred to as counts per minute (cpm).
(§5) Where dpm=disintegrations per minute, cmpd=signal in assay well, and min and max are the respective minimum and maximum signal controls.
(§6) Where top and bottom are the normally allowed to float, but may be fixed at 100 or 0 respectively in a 3-parameter fit. The Hill Coefficient normally allowed to float but may also be fixed at 1 in a 3-parameter fit. Y is the % inhibition and X is the compound concentration.

[2] = biological target: T2, EZH2 Y641F mutant (PRC2 enzyme) (Homo sapiens, UniProt Q15910, Y641F); experiment: PRC2 enzyme assay on peptide substrate, EZH2 Y641F mutant; format: biochemical; settings: Y641F mutant PRC2 enzyme 4 nM, H3K27me2 peptide, 3H-SAM Flashplate
T2 construct: made in house; host or cells: Spodoptera frugiperda (sf9) cells, baculovirus
T2 sequence (Q15910 whole entry Y641F): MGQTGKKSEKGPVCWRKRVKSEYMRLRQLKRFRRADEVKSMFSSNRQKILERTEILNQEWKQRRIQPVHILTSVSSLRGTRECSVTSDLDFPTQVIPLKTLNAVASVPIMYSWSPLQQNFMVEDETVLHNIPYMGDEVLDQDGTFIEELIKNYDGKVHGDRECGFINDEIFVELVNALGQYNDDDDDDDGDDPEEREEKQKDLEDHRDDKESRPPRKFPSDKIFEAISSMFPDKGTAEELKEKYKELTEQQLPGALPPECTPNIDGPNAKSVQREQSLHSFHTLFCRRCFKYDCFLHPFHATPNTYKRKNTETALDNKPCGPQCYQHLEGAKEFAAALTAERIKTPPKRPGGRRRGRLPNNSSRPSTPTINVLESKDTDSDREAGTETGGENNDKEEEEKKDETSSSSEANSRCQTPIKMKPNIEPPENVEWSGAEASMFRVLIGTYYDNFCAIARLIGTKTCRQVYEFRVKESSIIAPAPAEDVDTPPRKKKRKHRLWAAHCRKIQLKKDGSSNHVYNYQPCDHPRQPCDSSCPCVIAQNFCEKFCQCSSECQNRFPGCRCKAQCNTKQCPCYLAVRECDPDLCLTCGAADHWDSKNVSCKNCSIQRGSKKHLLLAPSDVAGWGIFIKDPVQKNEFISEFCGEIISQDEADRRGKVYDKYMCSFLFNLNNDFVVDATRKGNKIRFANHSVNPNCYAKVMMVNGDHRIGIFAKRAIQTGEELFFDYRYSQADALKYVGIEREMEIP
T2 sequence (O75530 whole entry partner): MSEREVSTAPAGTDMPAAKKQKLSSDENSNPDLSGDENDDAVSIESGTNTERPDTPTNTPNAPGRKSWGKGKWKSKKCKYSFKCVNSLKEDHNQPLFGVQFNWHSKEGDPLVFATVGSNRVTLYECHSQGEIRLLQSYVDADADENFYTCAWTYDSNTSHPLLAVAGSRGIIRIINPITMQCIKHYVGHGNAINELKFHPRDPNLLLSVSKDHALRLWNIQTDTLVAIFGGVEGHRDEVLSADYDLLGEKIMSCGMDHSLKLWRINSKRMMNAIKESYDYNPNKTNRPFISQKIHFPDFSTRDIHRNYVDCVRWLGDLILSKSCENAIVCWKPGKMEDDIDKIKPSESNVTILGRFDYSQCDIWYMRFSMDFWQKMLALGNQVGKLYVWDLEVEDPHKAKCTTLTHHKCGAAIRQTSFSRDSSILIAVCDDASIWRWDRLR
T2 sequence (Q15022 whole entry partner): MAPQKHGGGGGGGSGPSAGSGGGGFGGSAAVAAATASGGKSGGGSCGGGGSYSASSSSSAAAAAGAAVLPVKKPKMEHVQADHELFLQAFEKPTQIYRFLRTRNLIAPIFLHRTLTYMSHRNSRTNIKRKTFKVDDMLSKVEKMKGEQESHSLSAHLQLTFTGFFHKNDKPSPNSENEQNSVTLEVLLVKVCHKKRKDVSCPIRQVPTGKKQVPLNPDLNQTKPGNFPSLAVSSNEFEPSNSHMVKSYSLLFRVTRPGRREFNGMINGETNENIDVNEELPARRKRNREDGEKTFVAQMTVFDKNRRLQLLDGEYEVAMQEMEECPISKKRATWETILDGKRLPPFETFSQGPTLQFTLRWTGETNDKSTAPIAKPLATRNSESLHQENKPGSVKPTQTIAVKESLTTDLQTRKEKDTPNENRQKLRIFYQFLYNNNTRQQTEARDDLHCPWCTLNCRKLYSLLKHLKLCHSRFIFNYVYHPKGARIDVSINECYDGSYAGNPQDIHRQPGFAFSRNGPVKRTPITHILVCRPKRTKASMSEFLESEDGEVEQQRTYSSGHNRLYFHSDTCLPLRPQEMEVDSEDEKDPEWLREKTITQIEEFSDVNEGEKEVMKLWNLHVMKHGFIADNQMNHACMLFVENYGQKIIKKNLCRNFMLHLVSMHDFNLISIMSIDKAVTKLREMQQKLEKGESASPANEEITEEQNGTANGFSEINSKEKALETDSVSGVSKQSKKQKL
T2 sequence (Q09028 whole entry partner): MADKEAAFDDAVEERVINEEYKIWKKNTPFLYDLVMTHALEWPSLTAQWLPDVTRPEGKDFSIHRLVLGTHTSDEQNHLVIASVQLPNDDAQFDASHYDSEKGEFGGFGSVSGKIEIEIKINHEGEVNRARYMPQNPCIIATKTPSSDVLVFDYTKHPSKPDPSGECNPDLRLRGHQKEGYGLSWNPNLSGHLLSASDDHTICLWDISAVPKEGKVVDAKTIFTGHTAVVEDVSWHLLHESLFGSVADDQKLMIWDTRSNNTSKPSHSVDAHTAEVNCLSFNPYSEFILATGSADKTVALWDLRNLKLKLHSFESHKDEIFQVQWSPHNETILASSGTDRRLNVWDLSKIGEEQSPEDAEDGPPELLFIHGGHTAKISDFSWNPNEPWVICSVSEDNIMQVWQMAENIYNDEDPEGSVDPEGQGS
Description: as §1, §2, §3, §4, §5, §6

WSU-DLCL2 cells = experiment: Cell Proliferation Analysis, WSU-DLCL2; format: cell-based; settings: Homo sapiens, WSUDLCL2, 144 h, 6 days, Cell Titer Glo
Description: WSU-DLCL2 suspension cells were purchased from DSMZ (German Collection of Microorganisms and Cell Cultures, Braunschweig, Germany). RPMI/Glutamax Medium, Penicillin-Streptomycin, Heat Inactivated Fetal Bovine Serum were purchased from Life Technologies, Grand Island, N.Y., USA. V-bottom polypropylene 384-well plates were purchased from Greiner Bio-One, Monroe, N.C., USA. Cell culture 384-well white opaque plates were purchased from Perkin Elmer, Waltham, Mass., USA. Cell-Titer Glo® was purchased from Promega Corporation, Madison, Wis., USA. SpectraMax M5 plate reader was purchased from Molecular Devices LLC, Sunnyvale, Calif., USA.
WSU-DLCL2 suspension cells were maintained in growth medium (RPMI 1640 supplemented with 10% v/v heat inactivated fetal bovine serum and cultured at 37° C. under 5% CO2. Under assay conditions, cells were incubated in Assay Medium (RPMI 1640 supplemented with 20% v/v heat inactivated fetal bovine serum and 100 units/mL penicillin-streptomycin) at 37° C. under 5% CO2.
For the assessment of the effect of compounds on the proliferation of the WSU-DLCL2 cell line, exponentially growing cells were plated in 384-well white opaque plates at a density of 1250 cell/ml in a final volume of 50 μl of assay medium. A compound source plate was prepared by performing triplicate nine-point 3-fold serial dilutions in DMSO, beginning at 10 mM (final top concentration of compound in the assay was 20 μM and the DMSO was 0.2%). A 100 nL aliquot from the compound stock plate was added to its respective well in the cell plate. […] After addition of compounds, assay plates were incubated for 6 days at 37° C., 5% CO2, relative humidity >90% for 6 days. Cell viability was measured by quantization of ATP present in the cell cultures, adding 35 μl of Cell Titer Glo® reagent to the cell plates. Luminescence was read in the SpectraMax M5. The concentration inhibiting cell viability by 50% was determined using a 4-parametric fit of the normalized dose response curves.

T1 sequence (Q15910 whole entry): as the sequence (Q15910 whole entry Y641F) above, with F641Y counted along it
T1 sequence (O75530 whole entry partner): as the sequence (O75530 whole entry partner) above
T1 sequence (Q15022 whole entry partner): as the sequence (Q15022 whole entry partner) above
T1 sequence (Q09028 whole entry partner): as the sequence (Q09028 whole entry partner) above

IC50 [1] [nM] | IC50 [2] [nM] | Compound | IC50 (WSU-DLCL2 cells) [nM]
22 to 37 | 40 | CCN(c1cc(Cl)cc(C(=O)NCc2c(C)[nH]c(C)cc2=O)c1C)[C@H]1CC[C@H](N(C)C)CC1 [Compound 1, 5-chloro-N-((2,6-dimethyl-4-oxo-1,4-dihydropyridin-3-yl)methyl)-3-(((trans)-4-(dimethylamino)cyclohexyl)(ethyl)amino)-2-methylbenzamide] | 17100
> 50000 | > 50000 | CCN(c1cc(Cl)cc(C(=O)NCc2c(C)n(C)c(C)cc2=O)c1C)[C@H]1CC[C@H](N(C)C)CC1 [Compound 86] | > 20000
35400 | 37400 | CCn1c(C)cc(=O)c(CNC(=O)c2cc(Cl)cc(N(CC)[C@H]3CC[C@H](N(C)C)CC3)c2C)c1C [Compound 87] | 3000
40 | 46 | CCN(c1cc(-c2ccc(COC)nc2)cc(C(=O)NCc2c(Cl)[nH]c(C)cc2=O)c1C)[C@H]1CC[C@H](N(C)C)CC1 [Compound 88] | 5100
270 | 229 | CCN(c1cc(-c2cnn(C)c2)cc(C(=O)NCc2c(Cl)[nH]c(C)cc2=O)c1C)[C@H]1CC[C@H](N(C)C)CC1 [Compound 89] | 11500
50 | 40 | CCN(c1cc(-c2ccc(C)nc2)cc(C(=O)NCc2c(Cl)[nH]c(C)cc2=O)c1C)[C@H]1CC[C@H](N(C)C)CC1 [Compound 90] | 5300
140 | 49 | CCN(c1cc(-c2cnc(C)cn2)cc(C(=O)NCc2c(Cl)[nH]c(C)cc2=O)c1C)[C@H]1CC[C@H](N(C)C)CC1 [Compound 91] | 5400
38 | 23 | CCN(c1cc(-c2ccc(OCCOC)cc2)cc(C(=O)NCc2c(Cl)[nH]c(C)cc2=O)c1C)[C@H]1CC[C@H](N(C)C)CC1 [Compound 92] | 4400
5 | 5 | CCN(c1cc(-c2ccc(OCCOC)cc2)cc(C(=O)NCc2c(C)[nH]c(C)cc2=O)c1C)[C@H]1CC[C@H](N(C)C)CC1 [Compound 93] | 1200
25 | 7 | CCCN(c1cc(-c2ccc(OCCOC)cc2)cc(C(=O)NCc2c(C)[nH]c(C)cc2=O)c1C)[C@H]1CC[C@H](N(C)C)CC1 [Compound 94] | 2900
27 | 18 | CCN(c1cc(-c2ccc(OCCOC)cc2)cc(C(=O)NCc2c(C)[nH]c(C)cc2=O)c1C)[C@H]1CC[C@H](N(C)CCOC)CC1 [Compound 100] | 4200
